Measurements from ChEMBL document CHEMBL5113477, “Membrane acting Povarov-Doebner derived compounds potently disperse preformed multidrug resistant Gram-positive bacterial biofilms” (Eur J Med Chem, 2022).
≈ marks a conversion by molar mass, not a printed value.

Experiments:
Type in all cases: functional
[1] = test system: Staphylococcus aureus; assay: Antibacterial activity against Staphylococcus aureus ATCC 25923 assessed as reduction in visible bacterial growth incubated for 18 to 20 hrs by CLSI based broth microdilution analysis; conditions: time 18-20 hrs
[2] = test system: Staphylococcus aureus; assay: Antibiofilm activity against methicillin-resistant Staphylococcus aureus USA 300 in TSB broth assessed as dispersal of glucose-induced biofilm preincubated with glucose for 48 hrs followed by compound addition and measured after 24 hrs by crystal violet staining based analysis
[3] = test system: Enterococcus faecium; assay: Antibiofilm activity against vancomycin-resistant Enterococcus faecium ATCC 700221 in TSB broth assessed as dispersal of glucose-induced biofilm preincubated with glucose for 48 hrs followed by compound addition and measured after 24 hrs by crystal violet staining based analysis
[4] = test system: Enterococcus faecalis; assay: Antibiofilm activity against vancomycin-resistant Enterococcus faecalis ATCC 51575 in TSB broth assessed as dispersal of glucose-induced biofilm preincubated with glucose for 48 hrs followed by compound addition and measured after 24 hrs by crystal violet staining based analysis
[5] = test system: Staphylococcus aureus; assay: Antibacterial activity against methicillin-resistant Staphylococcus aureus USA 300 (ARLG 1644) assessed as reduction in visible bacterial growth incubated for 18 to 20 hrs by CLSI based broth microdilution analysis; conditions: time 18-20 hrs
[6] = test system: Staphylococcus aureus; assay: Antibacterial activity against methicillin-resistant Staphylococcus aureus USA 300 (ARLG 1569) assessed as reduction in visible bacterial growth incubated for 18 to 20 hrs by CLSI based broth microdilution analysis; conditions: time 18-20 hrs
[7] = test system: Enterococcus faecalis; assay: Antibacterial activity against Enterococcus faecalis ATCC 29212 assessed as reduction in visible bacterial growth incubated for 18 to 20 hrs by CLSI based broth microdilution analysis; conditions: time 18-20 hrs
[8] = test system: Staphylococcus aureus; assay: Antibacterial activity against methicillin-resistant Staphylococcus aureus USA 300 (ARLG 1570) assessed as reduction in visible bacterial growth incubated for 18 to 20 hrs by CLSI based broth microdilution analysis; conditions: time 18-20 hrs
[9] = test system: Staphylococcus aureus; assay: Antibacterial activity against methicillin-resistant Staphylococcus aureus ATCC 33592 assessed as reduction in visible bacterial growth incubated for 18 to 20 hrs by CLSI based broth microdilution analysis; conditions: time 18-20 hrs
[10] = test system: Listeria monocytogenes; assay: Antibacterial activity against Listeria monocytogenes ATCC 19115 assessed as reduction in visible bacterial growth incubated for 18 to 20 hrs by CLSI based broth microdilution analysis; conditions: time 18-20 hrs
[11] = test system: Staphylococcus aureus; assay: Antibacterial activity against methicillin-resistant Staphylococcus aureus USA 300 (ARLG 1567) assessed as reduction in visible bacterial growth incubated for 18 to 20 hrs by CLSI based broth microdilution analysis; conditions: time 18-20 hrs
[12] = test system: Staphylococcus aureus; assay: Antibacterial activity against methicillin-resistant Staphylococcus aureus USA 300 (ARLG 1568) assessed as reduction in visible bacterial growth incubated for 18 to 20 hrs by CLSI based broth microdilution analysis; conditions: time 18-20 hrs
[13] = test system: Staphylococcus aureus; assay: Antibacterial activity against methicillin-resistant Staphylococcus aureus USA 300 (ARLG 1665) assessed as reduction in visible bacterial growth incubated for 18 to 20 hrs by CLSI based broth microdilution analysis; conditions: time 18-20 hrs
[14] = test system: Staphylococcus aureus; assay: Antibacterial activity against methicillin-resistant Staphylococcus aureus USA 300 (ARLG 1561) assessed as reduction in visible bacterial growth incubated for 18 to 20 hrs by CLSI based broth microdilution analysis; conditions: time 18-20 hrs
[15] = test system: Enterococcus faecalis; assay: Antibacterial activity against vancomycin-resistant Enterococcus faecalis ATCC 51575 assessed as reduction in visible bacterial growth incubated for 18 to 20 hrs by CLSI based broth microdilution analysis; conditions: time 18-20 hrs
[16] = test system: Staphylococcus aureus; assay: Antibacterial activity against methicillin-resistant Staphylococcus aureus USA 300 assessed as reduction in visible bacterial growth incubated for 18 to 20 hrs by CLSI based broth microdilution analysis; conditions: time 18-20 hrs
[17] = test system: Staphylococcus aureus; assay: Antibacterial activity against methicillin-resistant Staphylococcus aureus USA 300 (ARLG 1649) assessed as reduction in visible bacterial growth incubated for 18 to 20 hrs by CLSI based broth microdilution analysis; conditions: time 18-20 hrs
[18] = test system: Staphylococcus aureus; assay: Antibacterial activity against methicillin-resistant Staphylococcus aureus USA 300 (ARLG 1663) assessed as reduction in visible bacterial growth incubated for 18 to 20 hrs by CLSI based broth microdilution analysis; conditions: time 18-20 hrs
[19] = test system: Enterococcus faecium; assay: Antibacterial activity against vancomycin-resistant Enterococcus faecium ATCC 700221 assessed as reduction in visible bacterial growth incubated for 18 to 20 hrs by CLSI based broth microdilution analysis; conditions: time 18-20 hrs

`Oc1ccc(-c2nc3ccc(S(F)(F)(F)(F)F)cc3c3c2[C@H]2CC[C@@H]3C2)cc1` showed an MIC [1] greater than 16 µg/mL.

With `Oc1cccc([C@@H]2Nc3ccc(SC(F)(F)F)cc3[C@H]3[C@@H]4CC[C@@H](C4)[C@H]32)c1` the MIC [1] was 4 µg/mL (≈ 10.2 µM).

`Oc1ccc([C@@H]2Nc3ccc(F)cc3[C@H]3[C@@H]4CC[C@@H](C4)[C@H]32)cc1` was tested, and the MIC [1] was greater than 16 µg/mL.

In the case of `Oc1c(Cl)cc(Cl)cc1Sc1cc(Cl)cc(Cl)c1O` [BITHIONOL], the MBEC [2] is reported as 8 µg/mL, the MBEC [3] is reported as 8 µg/mL and the MBEC [4] is reported as 8 µg/mL.

For `Oc1ccc([C@@H]2Nc3c(ccc(Cl)c3Cl)[C@H]3[C@@H]4CC[C@@H](C4)[C@H]32)cc1`, the MIC [1] was 4 µg/mL (≈ 11.1 µM).

`CC(=O)NC[C@H]1CN(c2ccc(N3CCOCC3)c(F)c2)C(=O)O1` [LINEZOLID] showed an MBC [5] greater than 64 µg/mL, an MIC [5] of 1 µg/mL (≈ 2.96 µM) and an MBC [6] of 64 µg/mL (≈ 190 µM). The MIC [6] was 1 µg/mL (≈ 2.96 µM), the MBC [1] was 64 µg/mL (≈ 190 µM) and the MBC [7] was 64 µg/mL (≈ 190 µM). It also gave an MBC [8] of 64 µg/mL (≈ 190 µM), an MIC [8] of 1 µg/mL (≈ 2.96 µM) and an MBC [9] of 64 µg/mL (≈ 190 µM). The MIC [10] was 2 µg/mL (≈ 5.93 µM), the MBC [11] was greater than 64 µg/mL and the MIC [11] was 1 µg/mL (≈ 2.96 µM). The MBC [12] was greater than 64 µg/mL, the MIC [12] was 1 µg/mL (≈ 2.96 µM) and the MBC [13] was greater than 64 µg/mL. The MIC [13] was 1 µg/mL (≈ 2.96 µM), the MBC [14] was 64 µg/mL (≈ 190 µM) and the MIC [14] was 1 µg/mL (≈ 2.96 µM). The MBC [15] was greater than 128 µg/mL, the MBC [16] was 128 µg/mL (≈ 379 µM) and the MBC [17] was greater than 64 µg/mL. For the same molecule, the MIC [17] was 1 µg/mL (≈ 2.96 µM), the MBC [18] was greater than 64 µg/mL and the MIC [18] was 1 µg/mL (≈ 2.96 µM). For the same molecule, the MBC [19] was greater than 128 µg/mL and the MIC [19] was 1 µg/mL (≈ 2.96 µM).

In the case of `CSc1ccc2c(c1)[C@H]1[C@@H]3CC[C@@H](C3)[C@H]1[C@H](c1ccc(O)cc1)N2`, the MIC [1] is reported as greater than 16 µg/mL.

`Oc1ccc([C@@H]2Nc3ccc(OC(F)(F)F)cc3[C@H]3[C@@H]4CC[C@@H](C4)[C@H]32)cc1` showed an MIC [1] greater than 16 µg/mL.

Work on `Oc1ccc([C@@H]2Nc3ccc(C(F)(F)F)cc3[C@H]3[C@@H]4CC[C@@H](C4)[C@H]32)cc1` yielded an MIC [1] of 2 µg/mL (≈ 5.56 µM), an MIC [7] of 2 µg/mL (≈ 5.56 µM) and an MIC [9] of 2 µg/mL (≈ 5.56 µM). For the same molecule, the MIC [10] was 2 µg/mL (≈ 5.56 µM), the MIC [15] was 2 µg/mL (≈ 5.56 µM) and the MIC [16] was 2 µg/mL (≈ 5.56 µM). The MIC [19] was 2 µg/mL (≈ 5.56 µM).

For `Oc1ccc([C@@H]2Nc3ccc(SC(F)(F)F)cc3[C@H]3[C@@H]4CC[C@@H](C4)[C@H]32)cc1`, the MIC [1] was 2 µg/mL (≈ 5.11 µM), the MIC [7] was 2 µg/mL (≈ 5.11 µM) and the MIC [9] was 2 µg/mL (≈ 5.11 µM). It also gave an MIC [10] of 2 µg/mL (≈ 5.11 µM), an MIC [15] of 2 µg/mL (≈ 5.11 µM) and an MIC [16] of 2 µg/mL (≈ 5.11 µM). The MIC [19] was 2 µg/mL (≈ 5.11 µM).

For `FS(F)(F)(F)(F)c1ccc2c(c1)[C@H]1[C@@H]3CC[C@@H](C3)[C@H]1[C@H](c1ccccc1)N2`, the MIC [1] was greater than 16 µg/mL.
